Laboratory results: ChEMBL document CHEMBL1201862, “PubChem BioAssay data set” (2004)
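Each compound was tested at five concentrations against cells in 96-well plates for 48 hours. GI50 = concentration required for 50% inhibition of growth.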 Activity calls are given as the source filed them. Rule as the data show it: active = GI50 up to about 1.1 µM and inactive = higher.

Key:
Assay in all cases: DTP human tumour cell line panel, 48 h
SF-295 = system: SF-295
NCI-H460 = system: NCI-H460
HT-29 = system: HT-29
UACC-62 = system: UACC-62
KM12 = system: KM12
HCT-116 = system: HCT-116
RXF 393 = system: RXF 393
CCRF-CEM = system: CCRF-CEM
OVCAR-5 = system: OVCAR-5
NCI-H522 = system: NCI-H522
UO-31 = system: UO-31
SN12C = system: SN12C
HCT-15 = system: HCT-15
SNB-75 = system: SNB-75
SK-OV-3 = system: SK-OV-3
NCI-H226 = system: NCI-H226
LOX IMVI = system: LOX IMVI
RPMI-8226 = system: RPMI-8226
MCF7 = system: MCF7
NCI/ADR-RES = system: NCI/ADR-RES

Row | SMILES | GI50 (SF-295) | GI50 (NCI-H460) | GI50 (HT-29) | GI50 (UACC-62) | GI50 (KM12) | GI50 (HCT-116) | GI50 (RXF 393) | GI50 (CCRF-CEM) | GI50 (OVCAR-5) | GI50 (NCI-H522) | GI50 (UO-31) | GI50 (SN12C) | GI50 (HCT-15) | GI50 (SNB-75) | GI50 (SK-OV-3) | GI50 (NCI-H226) | GI50 (LOX IMVI) | GI50 (RPMI-8226) | GI50 (MCF7) | GI50 (NCI/ADR-RES)
1 | CCCCP1(=O)C=CC(Cl)=C(C)C1 (stereo unspecified) | > 100 µM (inactive) | > 100 µM (inactive) | > 100 µM (inactive) | > 100 µM (inactive) | > 100 µM (inactive) | > 100 µM (inactive) | > 100 µM (inactive) | > 100 µM (inactive) | > 100 µM (inactive) | > 100 µM (inactive) | > 100 µM (inactive) | > 100 µM (inactive) | > 100 µM | – | – | – | – | – | – | –
2 | c1ccc(COC2(OCc3ccccc3)CC3OC2C2NN=NC32)cc1 (stereo unspecified) | 23.1 µM (inactive) | 46.1 µM (inactive) | 20.8 µM (inactive) | 21.3 µM (inactive) | 28.7 µM (inactive) | – | 41.7 µM (inactive) | 11.3 µM (inactive) | > 100 µM (inactive) | – | 29.7 µM (inactive) | > 10 µM (inactive) | 26 µM | 16.9 µM (inactive) | > 100 µM (inactive) | 18.1 µM (inactive) | 16.8 µM (inactive) | 13.7 µM (inactive) | – | –
3 | CC(=O)NNc1nc(C)c(C(=O)NNC(=O)C(=O)Nc2cccc(C(C)=O)c2)s1 | 31.4 µM (inactive) | 12.7 µM (inactive) | 50.2 µM (inactive) | 16.3 µM (inactive) | 24.7 µM (inactive) | 31.8 µM (inactive) | 16.5 µM (inactive) | 23.2 µM (inactive) | > 100 µM (inactive) | 15.2 µM (inactive) | 17.1 µM (inactive) | 15.9 µM (inactive) | 21.2 µM | 17.3 µM (inactive) | 18.3 µM (inactive) | 22.8 µM (inactive) | 21.2 µM (inactive) | 40.1 µM (inactive) | – | –
4 | Cn1ccnc1C(O)(c1nccn1C)c1nccn1C | > 100 µM (inactive) | > 100 µM (inactive) | > 100 µM (inactive) | – | > 100 µM (inactive) | – | > 100 µM (inactive) | – | > 100 µM (inactive) | > 100 µM (inactive) | > 100 µM (inactive) | > 100 µM (inactive) | – | > 100 µM (inactive) | – | > 100 µM (inactive) | > 100 µM (inactive) | – | – | –
5 | COC(=O)C1CCC(=O)N1C(=O)Cc1ccc(OC)cc1 (stereo unspecified) | > 100 µM (inactive) | > 100 µM (inactive) | > 100 µM (inactive) | > 100 µM (inactive) | > 100 µM (inactive) | > 100 µM (inactive) | – | – | > 100 µM (inactive) | > 100 µM (inactive) | > 100 µM (inactive) | > 100 µM (inactive) | > 100 µM | > 100 µM (inactive) | > 100 µM (inactive) | > 100 µM (inactive) | > 100 µM (inactive) | – | – | –
6 | COc1cc(C2c3cc4c(cc3OC3(O)COC(=O)C23)OCO4)cc(OC)c1OC (stereo unspecified) | 26.9 µM (inactive) | 56.2 µM (inactive) | 33.2 µM (inactive) | 44.3 µM (inactive) | – | 51.1 µM (inactive) | 31.3 µM (inactive) | 34.7 µM (inactive) | > 100 µM (inactive) | 22.7 µM (inactive) | 34.7 µM (inactive) | 67 µM (inactive) | 53.2 µM | 25.2 µM (inactive) | 25.1 µM (inactive) | 32.6 µM (inactive) | 47.5 µM (inactive) | 58.2 µM (inactive) | – | –
7 | CC1[C@@H](OCc2ccccc2)COC(=O)N1Cc1ccccc1 (stereo partly specified) | 46.2 µM (inactive) | – | > 100 µM (inactive) | > 100 µM (inactive) | > 100 µM (inactive) | > 100 µM (inactive) | – | > 100 µM (inactive) | > 100 µM (inactive) | – | 32.7 µM (inactive) | > 100 µM (inactive) | > 100 µM | > 100 µM (inactive) | > 100 µM (inactive) | > 100 µM (inactive) | > 100 µM (inactive) | 52.2 µM (inactive) | 81.8 µM (inactive) | 49.4 µM (inactive)
8 | COc1ccc2nc(NC(=O)C(=O)C(C(=O)c3ccccc3-c3ccccc3)C3OC(=O)c4ccccc43)sc2c1 (stereo unspecified) | 27.2 µM (inactive) | 21.7 µM (inactive) | 36.6 µM (inactive) | 17.3 µM (inactive) | 21.6 µM (inactive) | 14.5 µM (inactive) | 10.2 µM (inactive) | 15.5 µM (inactive) | 18.7 µM (inactive) | 9.89 µM (inactive) | 20.7 µM (inactive) | – | – | 16.1 µM (inactive) | 27.4 µM (inactive) | 5.27 µM (inactive) | 17 µM (inactive) | 10.7 µM (inactive) | – | –
9 | CC1=CC(=O)NP(=O)(C23CC4CC(CC(C4)C2)C3)N1 (stereo unspecified) | > 100 µM (inactive) | > 100 µM (inactive) | > 100 µM (inactive) | > 100 µM (inactive) | > 100 µM (inactive) | > 100 µM (inactive) | – | > 100 µM (inactive) | > 100 µM (inactive) | > 100 µM (inactive) | > 100 µM (inactive) | > 100 µM (inactive) | > 100 µM | > 100 µM (inactive) | > 100 µM (inactive) | > 100 µM (inactive) | > 100 µM (inactive) | > 100 µM (inactive) | – | –
10 | COc1ccc(C(=O)Cc2ccc(Cl)cc2)cc1OC | > 100 µM (inactive) | > 100 µM (inactive) | > 100 µM (inactive) | > 100 µM (inactive) | – | > 100 µM (inactive) | > 100 µM (inactive) | > 100 µM (inactive) | > 100 µM (inactive) | 64.9 µM (inactive) | > 100 µM (inactive) | > 100 µM (inactive) | > 100 µM | 34.4 µM (inactive) | > 100 µM (inactive) | > 100 µM (inactive) | > 100 µM (inactive) | > 100 µM (inactive) | – | –
11 | Cc1cc(Cl)ccc1NC1=NC(=O)C(CC(=O)Nc2cccc(Cl)c2)S1 (stereo unspecified) | 18.5 µM (inactive) | 62.2 µM (inactive) | 20.5 µM (inactive) | 22.2 µM (inactive) | 35.2 µM (inactive) | 24.2 µM (inactive) | 12.1 µM (inactive) | 22.6 µM (inactive) | 16.1 µM (inactive) | 26.5 µM (inactive) | 29.7 µM (inactive) | 53.5 µM (inactive) | 32.1 µM | 18.7 µM (inactive) | 42.5 µM (inactive) | > 100 µM (inactive) | 13.3 µM (inactive) | – | – | –
12 | CC(=O)Nc1ccccc1-c1cnc2ccccc2n1 | > 100 µM (inactive) | > 100 µM (inactive) | > 100 µM (inactive) | > 100 µM (inactive) | > 100 µM (inactive) | > 100 µM (inactive) | – | > 100 µM (inactive) | > 100 µM (inactive) | > 100 µM (inactive) | – | > 100 µM (inactive) | > 100 µM | > 100 µM (inactive) | > 100 µM (inactive) | > 100 µM (inactive) | > 100 µM (inactive) | > 100 µM (inactive) | – | –
13 | CCCn1cc2c(O)nc(SC)nc2n1 | > 100 µM (inactive) | > 100 µM (inactive) | > 100 µM (inactive) | – | > 100 µM (inactive) | > 100 µM (inactive) | > 100 µM (inactive) | > 100 µM (inactive) | 79.4 µM (inactive) | – | 72.6 µM (inactive) | > 100 µM (inactive) | > 100 µM | 41.6 µM (inactive) | – | 19.9 µM (inactive) | > 100 µM (inactive) | > 100 µM (inactive) | – | –
14 | CC1OC2=N[C@@H]1C(=O)N[C@@H](Cc1ccccc1)C1=N[C@H](C(=O)N[C@@H](Cc3ccccc3)C3=N[C@H](C(=O)N[C@H]2Cc2ccccc2)C(C)O3)C(C)O1 (stereo partly specified) | 30.7 µM (inactive) | – | 20 µM (inactive) | 30.8 µM (inactive) | 61.1 µM (inactive) | 23.3 µM (inactive) | 31.1 µM (inactive) | – | 30.3 µM (inactive) | – | 31.8 µM (inactive) | 36 µM (inactive) | 30.6 µM | – | 49.7 µM (inactive) | 29.6 µM (inactive) | 17 µM (inactive) | 13.5 µM (inactive) | 45.9 µM (inactive) | 44.6 µM (inactive)
15 | Cn1c(=O)c2nc(N3CCOCC3)cnc2n(C)c1=O | > 100 µM (inactive) | > 100 µM (inactive) | > 100 µM (inactive) | > 100 µM (inactive) | > 100 µM (inactive) | > 100 µM (inactive) | – | > 100 µM (inactive) | > 100 µM (inactive) | > 100 µM (inactive) | > 100 µM (inactive) | > 100 µM (inactive) | > 100 µM | > 100 µM (inactive) | > 100 µM (inactive) | – | – | > 100 µM (inactive) | – | –
16 | C=CCN(N=O)C(=O)N(CCC)CCCCC(NC(C)=O)C(=O)NCc1ccccc1 (stereo unspecified) | > 100 µM (inactive) | > 100 µM (inactive) | 29.2 µM (inactive) | > 100 µM (inactive) | 59.4 µM (inactive) | – | 38.1 µM (inactive) | 33.7 µM (inactive) | > 100 µM (inactive) | 73.6 µM (inactive) | 88.1 µM (inactive) | > 100 µM (inactive) | > 100 µM | 71.8 µM (inactive) | > 100 µM (inactive) | > 100 µM (inactive) | 67.1 µM (inactive) | 26.9 µM (inactive) | – | –
17 | Nc1nc(N)c2c(n1)NC(=O)c1c(c3ccccc3n1Cc1ccc(Cl)cc1)C2 | 34.2 µM (inactive) | 18.2 µM (inactive) | 31.3 µM (inactive) | 45.7 µM (inactive) | – | 23.6 µM (inactive) | 15.5 µM (inactive) | 17.7 µM (inactive) | 48.9 µM (inactive) | – | > 100 µM (inactive) | 17.3 µM (inactive) | 17 µM | 17.9 µM (inactive) | 18.8 µM (inactive) | 37.6 µM (inactive) | 19.1 µM (inactive) | – | 35.3 µM (inactive) | 26.6 µM (inactive)
